{"source": "patent US20240197728A1", "about": "“METHODS AND PHARMACEUTICAL COMPOSITIONS FOR TREATING REFRACTORY EPILEPSY” (INSERM (INSTITUT NATIONAL DE LA SANTÉ ET DE LA RECHERCHE …, priority 2021, published 2024)", "key": {"[1]": {"test_system": "SPAK", "assay": "Immunoblot of SPAK phosphorylation and expression in hippocampo-cortical slices", "assay_type": "cell-based, rat", "conditions": "10 μM WNK463, 2 h; vs DMSO", "procedure": "(§1) For all experiments on hippocampal cultures, neurons were pre-incubated for 2 hours with either DMSO, PCPZ or CLP257 in a CO2 incubator set at 37° C. Drugs were added directly to the culture medium. For electrophysiology experiments, neurons were also recorded in presence of these drugs in the bath. For biochemistry experiments on rat hippocampo-cortical slices, slices were incubated with either DMSO (vehicle), CLP257, PCPZ, WNK463 or sodium orthovanadate for 2 hours in interface chambers set at 37° C. For human tissue experiments, slices were pre-incubated with either DMSO, CLP257 or PCPZ for 2 hours in interface chambers set at 37° C. and then also recorded in presence of these compounds.\n(§2) 8-weeks old Sprague Dawley male rats were anesthetized by intraperitoneal ketamine/xylazine injection (120/10 mg/kg) and perfused transcardially with ice-cold (0-4° C.), oxygenated solution (O2/CO2 95/5%), containing (in mM): N-methyl-d-glucamine 93, KCl 2.5, NaH2PO4 1.2, NaHCO330, HEPES 20, D-glucose 20, ascorbic acid 5, sodium pyruvate 3, MgSO4 10 and CaCl2) 0.5 (300-310 mOsm, pH7.4). Brains were removed and transverse hippocampo-cortical slices (400 m thick) were prepared in the same solution using a vibratome (HM650V, Microm). Slices were then incubated for 2-hours with DMSO, the KCC2 enhancers (CLP257, PCPZ, WNK43) or sodium orthovanadate in an interface chamber containing artificial cerebrospinal fluid (ACSF) composed of (in mM): D-glucose 10, KCl 3.5, NaHOC3 26, NaH2PO4 1.25, NaCl 126, CaCl2) 1.6 and MgCl2 1.2 (290 mOsm), equilibrated with 5% CO2 in 95% 02. After the treatments, slices were washed with cold PBS, instantaneously frozen with liquid nitrogen and stored at −80° C.\n(§3) Slices were mechanically lysed on ice, using a 2 mL Dounce, in a buffer containing (in mM): Tris/HCl, pH 7.5 50, EGTA 1, EDTA 1, sodium orthovanadate 1, sodium-B-glycerophosphate 10, sodium fluoride 50, sodium pyrophosphate 5, sucrose 270, benzamidine 1, phenylmethylsulfonyl fluoride 2, Triton […], (v/v) 2-mercaptoethanol 0.1% and protease inhibitors (Roche). After complete homogenization, samples were centrifuged (16,000×g at 4° C. for 10 min) and the supernatant was collected. Protein quantification was done using Pierce BCA Protein Assay kit (Thermo Scientific) with BSA as standard.\nSamples were subjected to electrophoresis on polyacrylamide gradient gels (4-12% bis-tris gels) and transferred to nitrocellulose membranes. Membranes were rinsed with TBS-tween solution (TBST; Invitrogen) and blocked with 5% (w/v) skim milk. […] Fluorescence was detected and the relative intensities of immunoblot bands were determined using Odyssey infrared imaging system (LI-COR Bioscience). […]"}, "[2]": {"test_system": "OSR1", "assay": "Immunoblot of OSR1 phosphorylation and expression in hippocampo-cortical slices", "assay_type": "cell-based, rat", "conditions": "10 μM WNK463, 2 h; vs DMSO", "procedure": "as §1, §2, §3\nSamples were subjected to electrophoresis on polyacrylamide gradient gels (4-12% bis-tris gels) and transferred to nitrocellulose membranes. Membranes were rinsed with TBS-tween solution (TBST; Invitrogen) and blocked with 5% (w/v) skim milk. The membranes were then immunoblotted in 5% (w/v) skim milk in TBST with a primary antibody against KCC2 (rabbit, 07-432; Millipore; 1:1000), or phosphotyrosine (mouse, clone 4G10, Millipore, 1:1000), and a mouse primary antibody against neuron-specific beta-III tubulin overnight at 4° C. (clone 2G10; T8578; Sigma-Aldrich; 1:1000). They were then washed three times with distillated water, three times with TBST-milk solution and incubated for one hour at RT with goat secondary antibodies anti-rabbit IRDye 800 (1:3000; LI-COR), goat anti-mouse IRDye 700 (1:3000; LI-COR) or donkey anti-sheep DyLight 800 (1:3000; Rockland). Membranes were then washed again with TBST three times and one time with TBS. Fluorescence was detected and the relative intensities of immunoblot bands were determined using Odyssey infrared imaging system (LI-COR Bioscience). […]"}, "[3]": {"test_system": "KCC2", "assay": "Immunoprecipitation/immunoblot of KCC2 phosphorylation and expression in hippocampo-cortical slices", "assay_type": "cell-based, rat", "procedure": "as §1, §2, §3\nThe following phosphorylation site-specific antibodies: anti-KCC3A phospho Thr1048 (0.35 mg/ml, sheep, [S0961C] 1st bleed, Dundee), anti-KCC3A phospho Thr 991 (0.26 mg/ml, sheep, [S959C] 1st bleed, Dundee) were first incubated for 30 min at 4° C. with the corresponding non-phosphorylated peptide (10 mg/ml, Dundee).\nPhospho-antibodies or anti-KCC2 antibodies (07-432; Millipore) were then coupled with protein-G-Sepharose (4 Fast Flow; Sigma-Aldrich) at a ratio of […] of antibody per 100 μl of beads, for 2 h at 4° C. without agitation. 1.5 mg of clarified cell lysate was incubated with the antibody-coupled bead suspension, overnight at 4° C. under gentle agitation. The supernatant was collected after centrifugation and beads were washed twice with NaCl solution (0.25M NaCl in 1×PBS) and twice with PBS alone. Bound proteins were eluted with 2×LDS sample buffer (Invitrogen) containing 0.5% (v/v) 2-mercaptoethanol and denaturated at 75° C. for 20 min (IP with phospho-antibodies) or 37° C. for 1 h (IP with anti-KCC2 antibodies) before centrifugation (13,000×g at 4° C. for 15-20 min).\nSamples were subjected to electrophoresis on polyacrylamide gradient gels (4-12% bis-tris gels) and transferred to nitrocellulose membranes. Membranes were rinsed with TBS-tween solution (TBST; Invitrogen) and blocked with 5% (w/v) skim milk. The membranes were then immunoblotted in 5% (w/v) skim milk in TBST with a primary antibody against KCC2 (rabbit, 07-432; Millipore; 1:1000), or phosphotyrosine (mouse, clone 4G10, Millipore, 1:1000), and a mouse primary antibody against neuron-specific beta-III tubulin overnight at 4° C. (clone 2G10; T8578; Sigma-Aldrich; 1:1000). […]"}, "[4]": {"target": "T1, NKCC1 (Homo sapiens, UniProt P55011)", "T1 sequence (P55011 1-1212)": "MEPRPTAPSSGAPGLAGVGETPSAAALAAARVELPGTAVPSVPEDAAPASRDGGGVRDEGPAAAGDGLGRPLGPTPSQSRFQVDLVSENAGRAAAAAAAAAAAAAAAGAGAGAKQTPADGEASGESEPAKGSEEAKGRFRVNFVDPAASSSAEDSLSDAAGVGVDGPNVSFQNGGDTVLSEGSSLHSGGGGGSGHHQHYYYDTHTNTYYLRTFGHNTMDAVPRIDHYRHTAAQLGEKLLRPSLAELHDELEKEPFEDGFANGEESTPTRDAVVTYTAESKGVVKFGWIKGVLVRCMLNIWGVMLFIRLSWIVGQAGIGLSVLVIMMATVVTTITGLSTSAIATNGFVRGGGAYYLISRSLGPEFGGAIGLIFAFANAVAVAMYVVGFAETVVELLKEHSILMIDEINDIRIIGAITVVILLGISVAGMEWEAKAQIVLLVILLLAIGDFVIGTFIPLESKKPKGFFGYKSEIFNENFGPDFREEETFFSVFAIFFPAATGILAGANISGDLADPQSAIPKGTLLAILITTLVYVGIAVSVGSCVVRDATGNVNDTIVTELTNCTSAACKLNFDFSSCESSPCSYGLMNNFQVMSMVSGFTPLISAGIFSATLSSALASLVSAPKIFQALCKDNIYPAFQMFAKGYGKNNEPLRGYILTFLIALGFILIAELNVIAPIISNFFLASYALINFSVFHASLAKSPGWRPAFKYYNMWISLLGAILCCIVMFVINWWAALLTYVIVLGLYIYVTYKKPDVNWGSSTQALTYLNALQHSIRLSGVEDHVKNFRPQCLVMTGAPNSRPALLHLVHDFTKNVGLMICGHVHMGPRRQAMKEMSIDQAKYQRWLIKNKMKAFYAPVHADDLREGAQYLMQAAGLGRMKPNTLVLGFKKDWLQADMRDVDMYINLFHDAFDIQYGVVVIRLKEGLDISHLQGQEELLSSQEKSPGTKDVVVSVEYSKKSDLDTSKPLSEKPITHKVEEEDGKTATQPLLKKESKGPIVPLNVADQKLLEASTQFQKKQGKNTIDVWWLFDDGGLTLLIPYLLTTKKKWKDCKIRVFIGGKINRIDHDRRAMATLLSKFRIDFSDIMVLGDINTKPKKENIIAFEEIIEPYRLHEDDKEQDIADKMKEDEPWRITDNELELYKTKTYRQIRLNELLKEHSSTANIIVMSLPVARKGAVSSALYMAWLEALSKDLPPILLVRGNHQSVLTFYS", "conditions": "NEMO trial, neonatal seizures; cited from earlier work"}, "[5]": {"test_system": "spontaneous interictal-like discharges (IIDs) in slices from mTLE patients", "assay": "Multielectrode array recording of postoperative hippocampal-subicular slices from mTLE patients", "assay_type": "cell-based, human", "conditions": "10 μM bumetanide, >10 min application", "procedure": "as §1\nPatients or their legal guardians gave informed consent to participate in the study. Patients ([…], 3 males, 4 female, age range: 16-54 years) diagnosed with mesial temporal lobe epilepsy with hippocampal sclerosis underwent multimodal preoperative neurological, neurophyschological and psychiatric evaluations as well as video-electroencephalographic recording, magnetic resonance imaging and fluorodeooxyglugose positron emission tomography. Cortectomies were performed at Sainte-Anne Hospital by neurosurgeons B. Devaux and B. Turak and at Pitié-Salpêtriére Hospital by neurosurgeons S. Clemenceau and B. Mathon. Cortical specimens collected in the operating room were immediately transported in ice-cold (0-4° C.), oxygenated solution (O2/CO2 95/5%), containing (in mM): N-methyl-d-glucamine 93, KCl 2.5, NaH2PO4 1.2, NaHCO3 30, HEPES 20, D-glucose 20, ascorbic acid 5, sodium pyruvate 3, MgSO4 10 and CaCl2 0.5 (300-310 mOsm, pH7.4) and transported within 15 minutes to the laboratory. Transverse hippocampal-subicular slices (400 m thick) were prepared in the same solution using a vibratome (HM650V, Microm). They were maintained for 20-30 minutes at 37° C. and then at room temperature in an interface chamber containing artificial cerebrospinal fluid (ACSF) composed of (in mM): D-glucose 10, KCl 3.5, NaHOC3 26, NaH2PO4 1.25, NaCl 126, CaCl2 1.6 and MgCl2 1.2 (290 mOsm), equilibrated with 5% CO2 in 95% 02.\nMultielectrode array recordings were performed using a MEA2100 station (Multi Channel Systems) equipped with a 120-microelectrode array chamber (custom 12×10 layout, 30 μm TiN electrodes spaced 1 mm vertical and 1.5 mm horizontal). Slices were maintained in the recording chamber using a home-made platinum-nylon harp and superfused with pre-warmed (37° C.) oxygenated ACSF at a rate of 6 ml/min. Slices were imaged using a video-microscope table (MEA-VMT1, Multi Channel Systems) in order to register the location of electrodes with respect to the slice. Extracellular signals were acquired at a sampling rate of 10 kHz using Multi Channel Experimenter (Multi Channel Systems) and analyzed offline using homemade software (Matlab, The Mathworks)."}}}
{"molecule": "CC(C)(C)NC(=O)c1cncn1C1CCN(c2ccc(-c3nnc(C(F)(F)F)o3)cn2)CC1", "note": "[WNK463]", "values": [{"measurement": "change of SPAK phosphorylation (S327)", "setting": "[1]", "value": "−84.10±4.57", "unit": "%"}, {"measurement": "change of OSR1 phosphorylation (S325)", "setting": "[2]", "value": "−81.00±5.56", "unit": "%"}, {"measurement": "change of total KCC2 expression", "setting": "[3]; 10 μM WNK463, 2 h, slices, vs DMSO", "value": "−7.64±13.00", "unit": "%"}, {"measurement": "change of KCC2 phosphorylation at S940", "setting": "[3]; 10 μM WNK463, 2 h, vs DMSO", "value": "−14.40±4.67", "unit": "%"}, {"measurement": "change of KCC2 phosphorylation at T906", "setting": "[3]; 10 μM WNK463, 2 h, vs DMSO", "value": "−13.70±12.5", "unit": "%"}, {"measurement": "change of KCC2 phosphorylation at T1007", "setting": "[3]; 10 μM WNK463, 2 h, vs DMSO", "value": "−78.702±3.27", "unit": "%"}]}
{"molecule": "CCCCNc1cc(C(=O)O)cc(S(N)(=O)=O)c1Oc1ccccc1", "note": "[bumetanide]", "values": [{"measurement": "hearing loss in surviving patients", "setting": "[4]", "value": "3/11"}, {"measurement": "slices in which the amplitude of IIDs was reduced or IIDs abolished", "setting": "[5]", "value": "3 of 4"}]}
{"molecule": "[Na+].[Na+].[Na+].[O]=[V]([O-])([O-])[O-]", "note": "[sodium orthovanadate]", "values": [{"measurement": "change of tyrosine phosphorylation of KCC2", "setting": "[3]; sodium orthovanadate 200 μM in H2O (FIG. 4 legend), 2 h", "value": "+89.10±45.40%"}]}
